Laboratory results from patent US10934283B2, “COMT inhibiting methods and compositions” (LIEBER INSTITUTE FOR BRAIN DEVELOPMENT, priority 2015, dated 2021).
Counter-ions that a name gives are not always drawn.

Biological target: T1, catechol-O-methyltransferase (COMT) (Homo sapiens, UniProt P21964)
T1 construct: M51A variant) was expressed in HEK 293F cells
T1 sequence (P21964 52-271 limits assumed): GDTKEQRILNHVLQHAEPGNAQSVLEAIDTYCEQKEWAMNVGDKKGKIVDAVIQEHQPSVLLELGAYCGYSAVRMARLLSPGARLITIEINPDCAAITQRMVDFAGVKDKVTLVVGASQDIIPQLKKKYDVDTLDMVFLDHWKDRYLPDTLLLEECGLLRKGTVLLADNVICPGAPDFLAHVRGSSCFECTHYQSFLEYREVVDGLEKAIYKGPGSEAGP
Assay: COMT inhibition assay (HTRF, production of SAH from SAM)
Assay type: biochemical
Conditions: table does not say MB-COMT or S-COMT
Protocol: The ability of compounds to inhibit the activity of catechol-O-methyltransferase (COMT) was determined by a homogenous time-resolved fluorescent (HTRF) assay (Lina et al, 2012; kit from CisBio, Codolet, France). This assay measures the production of S-adenosyl homocysteine (SAH) from the methyl donor S-adenosyl methionine. Recombinant human membrane bound COMT (MB-COMT; M51A variant) was expressed in HEK 293F cells using 293Fectin (Life Technologies, Gent, Belgium) and membranes prepared. The membranes were re-suspended in buffer (20 mM Tris/HCl pH 7; 10 mM glycerol; 2 mM MgCl2; 10 mM NaCl), aliquoted and stored at −80° C. Recombinant human soluble COMT(S-COMT), Val158 variant and a hexa-His tag on the N-terminus, was purified using Ni-NTA chromatography, the His tag removed and stored in buffer as above.
For the human MB-COMT assay, membranes (62 ng/well) were incubated with SAM (20 μM final, CisBio) and dopamine (1.5 μM final; Sigma H8502, Diegem, Belgium) in the presence or absence of varying concentrations (typically 10 concentrations ranging from 10 ? M to 0.1 nM) of compound for 40 min at 37° C. in 384-well microtiter plates (10 ? l per well final volume). The reaction was terminated by the addition of acylation buffer and the amount of SAH produced determined according to manufacturer's instructions. Specific inhibition as that inhibited by a high concentration of tolcapone and all experiments were validated using a control curve to tolcapone.
The human S-COMT assay was performed as above except that 0.15 ng enzyme/well was incubated with SAM ([…]) and dopamine (100 μM final) for 15 min at 37° C. and SAH production determined.
HTRF readings were performed using a Perkin Elmer Envision and results expressed as concentration of SAH produced using a standard curve. Results were analyzed using non-linear regression to the 4-parameter logistic equation and pIC50 (−log 10 concentration of drug which inhibits enzyme activity/SAH production by 50%) determined.

SMILES	Activity range (pIC50)
CC(=O)Nc1cccc(C(C)N2CCn3cc(O)c(=O)cc3C2)c1 (stereo not drawn) [Example 96, N-{3-[1-(7-hydroxy-8-oxo-1,3,4,8-tetrahydro-2H-pyrido[1,2-a]pyrazin-2-yl)ethyl]phenyl}acetamide]	++ (two plus signs (++) is associated with a pIC50 of from about 6 to 7)
CC(c1ccccc1)N1CCn2cc(O)c(=O)cc2C1 (stereo not drawn) [Example 15, 7-hydroxy-2-(1-phenylethyl)-1,2,3,4-tetrahydro-8H-pyrido[1,2-a]pyrazin-8-one]	++ (two plus signs (++) is associated with a pIC50 of from about 6 to 7)
O=c1cc2n(cc1O)CCN(Cc1cc(Cl)cc(Cl)c1)C2 [Example 21, 2-(3,5-dichlorobenzyl)-7-hydroxy-1,2,3,4-tetrahydro-8H-pyrido[1,2-a]pyrazin-8-one]	+++ (three plus signs (+++) is associated with a pIC50 of above about 7)
O=c1cc2n(cc1O)CCN(C1CCCCc3ccccc31)C2 (stereo not drawn) [Example 86, 7-hydroxy-2-(6,7,8,9-tetrahydro-5H-benzo[7]annulen-5-yl)-1,2,3,4-tetrahydro-8H-pyrido[1,2-a]pyrazin-8-one]	+++ (three plus signs (+++) is associated with a pIC50 of above about 7)
O=c1cc2n(cc1O)CCN(C(c1ccccc1)C(F)(F)F)C2 (stereo not drawn) [Example 101, 7-hydroxy-2-(2,2,2-trifluoro-1-phenylethyl)-1,2,3,4-tetrahydro-8H-pyrido[1,2-a]pyrazin-8-one]	+++ (three plus signs (+++) is associated with a pIC50 of above about 7)
CCC(CC)CN1CCn2cc(O)c(=O)cc2C1 [Example 20, 2-(2-ethylbutyl)-7-hydroxy-1,2,3,4-tetrahydro-8H-pyrido[1,2-a]pyrazin-8-one]	++ (two plus signs (++) is associated with a pIC50 of from about 6 to 7)
CC(c1ccc(C#N)cc1)N1CCn2cc(O)c(=O)cc2C1 (stereo not drawn) [Example 94, 4-[1-(7-hydroxy-8-oxo-1,3,4,8-tetrahydro-2H-pyrido[1,2-a]pyrazin-2-yl)ethyl]benzonitrile]	++ (two plus signs (++) is associated with a pIC50 of from about 6 to 7)
O=c1cc2n(cc1O)CCN(Cc1c(Cl)cccc1Cl)C2 [Example 60, 2-[(2,6-dichlorophenyl)methyl]-7-hydroxy-3,4-dihydro-1H-pyrido[1,2-a]pyrazin-8-one]	+++ (three plus signs (+++) is associated with a pIC50 of above about 7)
O=c1cc2n(cc1O)CCN(Cc1c(F)cccc1Cl)C2 [Example 59, 2-[(2-chloro-6-fluoro-phenyl)methyl]-7-hydroxy-3,4-dihydro-1H-pyrido[1,2-a]pyrazin-8-one]	+++ (three plus signs (+++) is associated with a pIC50 of above about 7)
CC(c1ccc(C(F)(F)F)cc1)N1CCn2cc(O)c(=O)cc2C1 (stereo not drawn) [Example 70, 7-hydroxy-2-{1-[4-(trifluoromethyl)phenyl]ethyl}-1,2,3,4-tetrahydro-8H-pyrido[1,2-a]pyrazin-8-one]	++ (two plus signs (++) is associated with a pIC50 of from about 6 to 7)
O=c1cc2n(cc1O)CCN(C(Cc1ccccc1)c1ccccc1)C2 (stereo not drawn) [Example 88, 2-(1,2-diphenylethyl)-7-hydroxy-1,2,3,4-tetrahydro-8H-pyrido[1,2-a]pyrazin-8-one]	+++ (three plus signs (+++) is associated with a pIC50 of above about 7)
CCc1ccc(CN2CCn3cc(O)c(=O)c(C4CC4)c3C2)cc1 [Example 141, 9-cyclopropyl-2-(4-ethylbenzyl)-7-hydroxy-1,2,3,4-tetrahydro-8H-pyrido[1,2-a]pyrazin-8-one]	++ (two plus signs (++) is associated with a pIC50 of from about 6 to 7)
O=c1cc2n(cc1O)CC(CCc1ccccc1)N(Cc1ccccc1)C2 (stereo not drawn) [Example 132, 2-benzyl-7-hydroxy-3-(2-phenylethyl)-1,2,3,4-tetrahydro-8H-pyrido[1,2-a]pyrazin-8-one]	+++ (three plus signs (+++) is associated with a pIC50 of above about 7)
CC(c1cccc(F)c1)N1CCn2cc(O)c(=O)cc2C1 (stereo not drawn) [Example 81, 2-[1-(3-fluorophenyl)ethyl]-7-hydroxy-1,2,3,4-tetrahydro-8H-pyrido[1,2-a]pyrazin-8-one]	++ (two plus signs (++) is associated with a pIC50 of from about 6 to 7)
CCc1ccc(CN2CCn3cc(O)c(=O)cc3C2)cc1[N+](=O)[O-] [Example 18, 2-(4-ethyl-3-nitrobenzyl)-7-hydroxy-1,2,3,4-tetrahydro-8H-pyrido[1,2-a]pyrazin-8-one]	+++ (three plus signs (+++) is associated with a pIC50 of above about 7)
O=c1cc2n(cc1O)CCN(CC(c1ccccc1)c1ccccc1)C2 [Example 19, 2-(2,2-diphenylethyl)-7-hydroxy-1,2,3,4-tetrahydro-8H-pyrido[1,2-a]pyrazin-8-one]	++ (two plus signs (++) is associated with a pIC50 of from about 6 to 7)
O=c1c(O)cn2c(c1Cl)CN(Cc1ccccc1Cl)CC2 [Example 137, 9-chloro-2-[(2-chlorophenyl)methyl]-7-hydroxy-3,4-dihydro-1H-pyrido[1,2-a]pyrazin-8-one]	+++ (three plus signs (+++) is associated with a pIC50 of above about 7)
O=c1c(O)cn2c(c1C1CC1)CN(Cc1ccccc1Cl)CC2 [Example 142, 2-[(2-chlorophenyl)methyl]-9-cyclopropyl-7-hydroxy-3,4-dihydro-1H-pyrido[1,2-a]pyrazin-8-one]	+++ (three plus signs (+++) is associated with a pIC50 of above about 7)
O=c1cc2n(cc1O)CCN(Cc1ccccc1)C2 [Example 1, 2-benzyl-7-hydroxy-1,2,3,4-tetrahydro-8H-pyrido[1,2-a]pyrazin-8-one]	++ (two plus signs (++) is associated with a pIC50 of from about 6 to 7)
CCc1ccc(CN2CCn3cc(O)c(=O)c(Br)c3C2)cc1 [Example 138, 9-bromo-2-(4-ethylbenzyl)-7-hydroxy-1,2,3,4-tetrahydro-8H-pyrido[1,2-a]pyrazin-8-one]	+++ (three plus signs (+++) is associated with a pIC50 of above about 7)
O=c1cc2n(cc1O)CCN(Cc1ccc3c(c1)OCCO3)C2 [Example 48, 2-(2,3-dihydro-1,4-benzodioxin-6-ylmethyl)-7-hydroxy-1,2,3,4-tetrahydro-8H-pyrido[1,2-a]pyrazin-8-one]	++ (two plus signs (++) is associated with a pIC50 of from about 6 to 7)
CCc1ccc(CN2CCn3cc(O)c(=O)cc3C2)cc1 [Example 13, 2-(4-ethylbenzyl)-7-hydroxy-1,2,3,4-tetrahydro-8H-pyrido[1,2-a]pyrazin-8-one]	+++ (three plus signs (+++) is associated with a pIC50 of above about 7)
O=c1cc2n(cc1O)CCN(Cc1ccc(C3CC3)cc1Cl)C2 [Example 64, 2-[(2-chloro-4-cyclopropyl-phenyl)methyl]-7-hydroxy-3,4-dihydro-1H-pyrido[1,2-a]pyrazin-8-one hydrochloride]	+++ (three plus signs (+++) is associated with a pIC50 of above about 7)
Cc1ccc(CN2CCn3cc(O)c(=O)cc3C2)c(C)c1 [Example 9, 2-(2,4-dimethylbenzyl)-7-hydroxy-1,2,3,4-tetrahydro-8H-pyrido[1,2-a]pyrazin-8-one]	+++ (three plus signs (+++) is associated with a pIC50 of above about 7)
O=c1cc2n(cc1O)CCN(Cc1ccc(Cl)cc1Cl)C2 [Example 57, 7-hydroxy-2-[(2,4-dichlorophenyl)methyl]-1,2,3,4-tetrahydro-8H-pyrido[1,2-a]pyrazin-8-one]	+++ (three plus signs (+++) is associated with a pIC50 of above about 7)
Cc1cccc(C)c1CN1CCn2cc(O)c(=O)cc2C1c1ccc(F)cc1 (stereo not drawn) [Example 124, 2-(2,6-dimethylbenzyl)-1-(4-fluorophenyl)-7-hydroxy-1,2,3,4-tetrahydro-8H-pyrido[1,2-a]pyrazin-8-one]	+++ (three plus signs (+++) is associated with a pIC50 of above about 7)
O=c1cc2n(cc1O)CCN(C1CC1c1ccccc1)C2 (stereo not drawn) [Example 109, 7-hydroxy-2-(2-phenylcyclopropyl)-3,4-dihydro-1H-pyrido[1,2-a]pyrazin-8-one]	++ (two plus signs (++) is associated with a pIC50 of from about 6 to 7)
